Measured values from PubChem BioAssay AID179 (DTP/NCI, 2004).
pEC50, pIC50: −log10 of the molar value. “And” between values parts separate entries of the source, which are not always exact repeats. Identical values can stand only once. The source made the active and inactive calls.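 The calls were made as follows: active = compounds giving half or more protection of infected cells from virus-caused growth loss, again on retest; inactive = the rest.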 Where a SMILES comes first, the peptide text is derived from it. The star is where a group is joined. Cbz = O=C(OCc1ccccc1)*; Bn = c1ccc(C*)cc1

Test system: CEM cells HIV-1 protection, formazan growth assay
Assay: NCI AIDS Antiviral Assay
Conditions: for pIC50: measured here: growth of uninfected CEM cells
Outline: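 Human CEM cells, uninfected and HIV-1-infected, exposed to five drug concentrations; growth measured by soluble formazan assay and scored as percent protection from infection, with protecting compounds retested.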

| Structure (SMILES) | pEC50 | pIC50 | outcome |
| --- | --- | --- | --- |
| O=C(NO)C(=O)Nc1ccc(Cl)cc1[N+](=O)[O-] | < 4.00 | < 4.00 |  |
| CC(C)=CCS(=O)c1ccccc1NC1=CC(=O)CC(C)(C)C1 (stereo not drawn) |  |  | inactive |
| O=C(c1ccccc1)C(c1ccccc1)C1(O)C(=O)Nc2c(Cl)cc(Cl)cc21 (stereo not drawn) | < 4.20 | < 4.20 |  |
| CC1(C)OC2C=C(COCc3ccccc3)C[C@H]3[C@@H]2C(O1)[C@@H]1OC[C@H]3O1 (stereo partly drawn) |  |  | inactive |
| N=C(N)N1CCNc2ccccc2C1 |  |  | inactive |
| O=C(NNC(=O)c1ccccc1O)c1ccccc1O | < 6.70 | 6.99 |  |
| CCCCCCSCC(NC(=O)CCC(N)C(=O)O)C(=O)NCC(=O)O (stereo not drawn) | < 4.62 | < 4.62 |  |
| O=[N+]([O-])c1ncn(C2OC(CO)C(O)C2O)c1S (stereo not drawn) | < 3.70 | < 3.70 |  |
| C#CCSc1nnnn1-c1ccccc1 | < 3.70 | 5.49 |  |
| Cc1cccc(C(C)(C)C)c1NC(=O)CCc1nc(=S)[nH][nH]1 | < 3.25 | 3.62 |  |
| CN(C)[C@@H]1C(=O)C(C(=O)NCNC2(C(=O)O)CCCC2)=C(O)[C@@]2(O)C(=O)C3=C(O)c4c(O)cccc4[C@@](C)(O)[C@H]3C[C@@H]12 | < 3.67 | 3.93 |  |
| Clc1ccc(SSc2ccc(Cl)cc2)cc1 | < 3.70 | 5.48 and 5.29 |  |
| O=C(CC/C(CC(=O)c1ccc(Cl)cc1)=N\O)Nc1cccc(Cl)c1 | < 3.46 | 3.59 |  |
| COC1C(O)CC(OC2CC(OC3CC(O[C@@H]4C(=O)c5c(cc6cc(OC7CC(OC8CC(O)C(O)C(C)O8)C(O)C(C)O7)c(C)c(O)c6c5O)C[C@H]4[C@H](OC)C(=O)[C@@H](O)[C@@H](C)O)OC(C)C3O)OC(C)C2O)OC1C (stereo partly drawn) | < 6.78 | 7.96 |  |
| CCOC(=O)N1C2C=C(C)C(ON2C(=O)c2ccccc2)C2C(C)C(=O)N21 (stereo not drawn) | < 3.45 | < 3.45 |  |
| COc1ccc(/C=C(/C(=O)c2ccc(Cl)cc2)N2C=CC=CC2=C(C#N)C#N)cc1OC | < 4.70 | 6.93 |  |
| CCOC(=O)/C=C\[C@H]1OC(C)(C)O[C@H]1[C@H](O)[C@H]1COC(C)(C)O1 | < 4.70 | 4.95 |  |
| CC1(C(=O)Nc2ccc3cc4ccccc4cc3c2)CC2(C)CC(C)(C1)C(O)NC2=O (stereo not drawn) |  |  | inactive |
| NC(=O)C(=O)N/N=C1\C(=O)N(c2ccc(Cl)cc2Cl)C(=O)C1C(=O)Nc1ccc(Cl)cc1Cl (stereo not drawn) | < 5.15 | < 5.15 |  |
| Cn1c(=O)c2[nH]c(SSc3nc4c([nH]3)c(=O)n(C)c(=O)n4C)nc2n(C)c1=O | 4.45 | 3.79 |  |
| c1ccc([P+](Cc2csnn2)(c2ccccc2)c2ccccc2)cc1 | < 3.48 | 3.76 |  |
| CC(=O)N=C1N(/C=C2\C(=O)Oc3ccccc3C2=O)C(=O)/C(=C/c2ccc3c(c2)OCO3)N1C | < 3.70 | < 3.70 |  |

| Structure (SMILES) | pEC50 | pIC50 | outcome |
| --- | --- | --- | --- |
| COc1c(C(C)C)cc(O)c2c1CCC1C(C)=C(C(=O)O)CCC21C (stereo not drawn) | < 3.70 | 3.96 |  |
| O=C(Nc1ccccc1)OCc1nc2c([nH]1)C(=O)C=CC2=O |  |  | inactive |
| CCOc1ccc(NC(=O)/C(=N\NC(C)(C)C)C2C(=O)Nc3ccccc3S2=O)cc1 (stereo not drawn) | < 4.37 | < 4.37 |  |
| C=CCN1c2ccccc2Sc2cnccc21 | < 3.72 | 4.48 |  |
| CC1(C)CC(=O)c2c(-c3ccc(Cl)cc3)c(C#N)c(=S)n(C3OC(CO)C(O)C(O)C3O)c2C1 (stereo not drawn) | < 3.70 | 4.50 |  |
| COc1cc(C(=O)C(CO)Oc2ccccc2OC)ccc1O (stereo not drawn) | < 3.10 | 3.91 |  |
| CC1OC(OC2C(O[C@H]3CC[C@@]4(C)[C@@H](CC[C@@H]5[C@@H]4CC[C@]4(C)[C@@H]6[C@H](C[C@@H]54)O[C@]4(CC[C@@H](C)CO4)[C@H]6C)C3)OC(CO)C(OC3OC(CO)C(O)C(OC4OCC(O)C(O)C4O)C3OC3OCC(O)C(O)C3O)C2O)C(O)C(O)C1O (stereo partly drawn) | < 5.70 | 6.08 |  |
| C=C1C(=O)OC2/C=C(\C=O)CC/C=C(\C)C(O)C[C@@H]12 (stereo partly drawn) | < 3.70 | 5.53 |  |
| NNc1c(C(N)=O)c2c(N)ncnc2n1C1OC(CO)C(O)C1O (stereo not drawn) | < 6.70 | 8.04 |  |
| O=C(O)c1ccc2c(c1)S(=O)(=O)c1ccccc1C2=O | < 3.70 | < 3.70 |  |
| Cc1cccc(NC(=O)Cc2nc3ccccc3s2)c1C | < 4.75 | < 4.75 |  |
| CCN1c2ccccc2-n2c(C)nnc2-c2c1n[nH]c2-c1ccccc1 | < 3.70 | 4.55 |  |
| CC1=CC(=O)Nc2cncnc2N1 | < 4.11 | < 4.11 |  |
| C=CCNC(=O)NCCCCC(NC(C)=O)C(=O)NCc1ccccc1 (stereo not drawn) | < 3.16 | < 3.16 |  |
| COc1ccc(NC(=O)CC(=O)N2N=C(N(CCC#N)c3ccccc3Cl)CC2c2ccccc2)cc1 (stereo not drawn) | < 4.30 | < 4.30 |  |
| CC1=C(C(=O)NCC(C)O)CC(C(=O)NCC(C)O)=C(C)N1 (stereo not drawn) | < 3.70 | < 3.70 |  |
| CN(C)C(C1=C(O)C(c2ccccc2)N(c2ccccc2)C1=O)N1CCOCC1 (stereo not drawn) |  |  | inactive |
| NC(N)=N/N=C/c1c[nH]c2ccccc12 | < 3.02 | 4.26 |  |
| CCOC(=O)c1noc(Oc2ccc(Cl)cc2Cl)n1 | < 4.35 | 4.60 |  |
| Cc1ccc(C=C(C(=O)O)C(=O)O)cc1 | < 2.92 | < 2.92 |  |
| Brc1ccc(-c2cc(-c3ccc4c(c3)OCO4)c(-c3cccs3)n2Cc2ccccc2)cc1 | < 3.70 | < 3.70 |  |
| CC1(C)CCCCCCCCCC(C)(CCCCCCCCCCCCO)C1=O (stereo not drawn) | < 3.70 | 4.73 |  |

| Structure (SMILES) | pEC50 | pIC50 | outcome |
| --- | --- | --- | --- |
| Cc1ccc(S(=O)(=O)SCc2ccccc2CSS(=O)(=O)c2ccc(C)cc2)cc1 |  |  | inactive |
| Cc1c(O)nc(CO)[nH]c1=O | < 3.70 | < 3.70 |  |
| N#Cc1ccc(C2ON=C(c3ccccc3)N2C23CC4CC(CC(C4)C2)C3)cc1 (stereo not drawn) | < 3.70 | 3.82 |  |
| CC(C)(C)C(=O)OC(N)/C=C/c1ccccc1 (stereo not drawn) | < 3.70 | < 3.70 |  |
| C=C(C)CS(=O)(=O)O | < 3.70 | < 3.70 |  |
| O=c1[nH]c(Nc2cccc(CC(F)(F)F)c2)nc2nc[nH]c12 | < 3.70 | 3.96 |  |
| COC1OC(CO)C2OC12 (stereo not drawn) | < 3.70 | < 3.70 |  |
| CCCCCCCC/C=C/CCCCCCCC1CC(O)C(=O)O1 (stereo not drawn) | < 3.70 | 3.72 |  |
| COc1ccc(-c2cn3c([nH]c(=O)c4cc(Br)ccc43)c2C#N)cc1 | < 3.70 | 3.74 |  |
| Nc1cc(N2CCOCC2)nc(=O)n1-c1ccc(Cl)cc1 | < 3.70 | < 3.70 |  |
| O/N=C1\CN2CCC1CC2 |  |  | inactive |
| CCC1=C(C)c2cc3[n-]c(cc4nc(c(C=O)c5[n-]c(cc1n2)c(C)c5CC)C(C)=C4CC)c(C)c3CC.[Ni+2] | < 4.30 | < 4.30 |  |
| O=C(c1ccccc1)[C@H]1Nc2ccc(Cl)cc2[C@H]2CCC[C@@H]12 | < 5.33 | < 5.33 |  |
| CNc1ncnc2c1ncn2C1C=CC(COS(N)(=O)=O)C1 (stereo not drawn) | < 3.70 | < 3.70 |  |
| CN(C)c1ccc(N=Nc2cccc3ncccc23)cc1 | < 3.70 | 4.14 |  |
| N/N=C(\c1ccccc1)c1cccs1 | < 3.70 | < 3.70 |  |
| COc1ccc(-n2c(C)nc3ccc(N=Cc4ccccc4)cc3c2=O)cc1 | < 3.70 | < 3.70 |  |
| NC(CSC[C@H](N)C(=O)O)C(=O)O (stereo partly drawn) |  |  | inactive |
| c1cc(-c2cscc2-c2ccsc2)cs1 | < 3.70 | 3.96 |  |
| Cc1nc2ccccc2c(=O)n1NC(=O)c1ccccn1 | < 3.70 | < 3.70 |  |
| c1ccc(P2c3ccccc3Nc3ccccc32)cc1 | < 3.70 | 4.21 |  |
| Cc1cccc(C(O)c2ccncc2)c1O (stereo not drawn) | < 3.70 | 3.72 |  |

| Structure (SMILES) | pEC50 | pIC50 | outcome |
| --- | --- | --- | --- |
| Cc1ccc([N+](=O)[O-])cc1/C(C#N)=C/c1ccccc1 | < 3.70 | 4.48 |  |
| COc1cc2noc(-c3ccccc3)c2cc1OC |  |  | inactive |
| COC(=O)C(Cc1ccc(O)cc1)NC(=O)C(COCc1ccccc1)NC(=O)OCc1ccccc1 (stereo not drawn) (Cbz-Ser(Bn)-Tyr-OMe; configuration not given here) | < 3.70 | 4.52 |  |
| NNC(=S)N/N=C(\c1nc2ccc(Cl)cc2[nH]c1=O)C(O)c1cccc([N+](=O)[O-])c1 (stereo not drawn) | < 3.25 | 3.92 |  |
| C=CC[C@H]1O[Si](C(C)(C)C)(C(C)(C)C)[C@H](C)[C@H]1C | < 3.70 | < 3.70 |  |
| Cc1ccc(S(=O)(=O)N/N=C2/CCC(C(C)(C)C)CC2Br)cc1 (stereo not drawn) | < 3.70 | 4.51 |  |
| CN1C(=O)C(=O)n2c(cc3ccccc32)C1=O | < 5.20 | < 5.20 |  |
| CC(=O)N1C(c2[nH]c3ccccc3c2Cc2ccccc2)CCN1c1ccccc1 (stereo not drawn) | < 3.70 | 3.99 |  |
| CCCCCCCCCCCCSSC(=S)OC(C)C | < 3.70 | < 3.70 |  |
| Cc1ccc2c(c1)C/C(=C\c1ccccc1C(=O)O)C2=O | < 3.70 | 3.99 |  |
| CN(C)C(=N)c1ccccc1 |  |  | inactive |
| N#C/C(=C\c1c(Cl)cccc1Cl)c1ccc([N+](=O)[O-])cc1 | < 3.70 | < 3.70 |  |
| CN1CCOC1(C)c1ccccc1 (stereo not drawn) | < 3.70 | < 3.70 |  |
| Nc1ccc(C(=O)NN2C(=O)C(Cl)C2c2cc(Br)cc(Br)c2O)cc1 (stereo not drawn) | < 3.70 | 4.81 |  |
| Cc1cc2c3c(nc2c2cc[nH]c(C)c12)CCCC3 | < 3.70 | 5.44 |  |
| O=C1/C(=C\c2cccc(Oc3ccccc3)c2)S(=O)(=O)C(c2ccccc2)N1c1cc(Cl)ccc1Cl (stereo not drawn) | < 3.70 | 5.48 |  |
| CC(C)=Nn1cnc2c1NC(C)(C)N=C2C(N)=O | < 3.70 | < 3.70 |  |
| CCCCOC(C)(C)/C=C/C(O)[C@](C)(O)[C@H]1[C@H](O)C[C@@]2(C)[C@@H]3CCc4c(cc(OC5OC(CO)C(O)C(O)C5O)c(O)c4C)C3(C)C(=O)C[C@]12C (stereo partly drawn) | < 3.70 | < 3.70 |  |
| CCN(c1ccccc1)c1nc(N)nc(NS(=O)(=O)c2cc(C)c(Cl)cc2S)n1 | 4.15 | < 3.70 |  |
| CCC12C=CCN3CCC4(c5cc(C(c6ccc(OC)cc6)c6cc7ccccc7n6S(=O)(=O)c6ccccc6)c(OC)cc5N(C)C4C(O)(C(=O)OC)C1OC(C)=O)C32 (stereo not drawn) | < 5.06 | < 5.06 |  |
| O=S1(=O)OCCOS(=O)(=O)C1(Cl)Cl | < 4.30 | < 4.30 |  |
